pIC50, pKi: −log10 of the molar value. Read-outs that look alike come from different tables or passages of the source.
What was measured:
[1] = system: adult male Wistar rats; assay: SCORE-2000 sleep-wakefulness, locomotor activity and body temperature monitoring; format: in vivo, rat
[2] = target: T1, H1 histamine receptor (Bos taurus, UniProt P30546); assay: Histamine H1 competitive binding assay ([3H]pyrilamine); parameters: species or system bovine
T1 construct: the receptors were obtained from bovine cerebellar membrane tissue; from tissue; host or cells: bovine cerebellar membranes

[3] = Plasma pharmacokinetics in rats; format: in vivo, rat
Excerpt: The following pharmacokinetic parameters are computed from the individual plasma concentrations of the modified antihistamine compound using a noncompartmental approach and appropriate validated pharmacokinetic software (e.g., WinNonlin Professional). Concentration values reported as BLQ are set to zero. If concentration data are available, interim calculations are done (non-QC.d data) between periods if possible.
Dose proportionality following study medication is explored by analyzing natural log-transformed pharmacokinetic variables AUC(0-t), AUC(0-inf), and Cmax with a linear model including the natural log-transformed dose as covariates. Dose proportionality is concluded if the 95% confidence interval for the slope of the covariate includes the value of 1. Dose linearity for AUC(0-t), AUC(0-inf), and Cmax is also explored by a linear model. See, e.g., Gibaldi and Perrier, Pharmacokinetics, Second Ed., Marcel Dekker: New York, N.Y. (1982). Nominal sample collection times were used in calculations, except where actual sampling times fell outside the protocol-specified acceptable time ranges. The following parameters were estimated: • Cmax Maximum plasma concentration. • Tmax Time to maximum concentration. • Cmax and Tmax were reported directly from the concentration-time data. • AUC0-T Area under the plasma concentration-time curve from time […] to the last time point with measurable concentrations, estimated bylinear trapezoidal rule. • AUC0-00 Area under the plasma concentration-time curve extrapolated to infinity, calculated using the formula: AUC0-00=AUC0-1+C0/λ0 • Where Ct is the last measurable concentration in plasma and λz is the terminal phase elimination rate constant estimated using log-linear regression during the terminal elimination phase. The number of points used in λz calculation was determined by visual inspection of the data describing the terminal phase. At lest the last three time points with measurable values were used in λz calculation. […]

[4] = target: hERG (Homo sapiens, UniProt Q12809); conditions: human, 10 µM, pH 7.4
[5] = target: T2, M1 muscarinic receptor (Homo sapiens, UniProt P11229); assay: Muscarinic M1 binding assay ([3H]-scopolamine, N-methyl chloride); parameters: purchased PerkinElmer, Inc., Wellesley, Mass; host or cells: CHO cells
T2 sequence (P11229 1-460): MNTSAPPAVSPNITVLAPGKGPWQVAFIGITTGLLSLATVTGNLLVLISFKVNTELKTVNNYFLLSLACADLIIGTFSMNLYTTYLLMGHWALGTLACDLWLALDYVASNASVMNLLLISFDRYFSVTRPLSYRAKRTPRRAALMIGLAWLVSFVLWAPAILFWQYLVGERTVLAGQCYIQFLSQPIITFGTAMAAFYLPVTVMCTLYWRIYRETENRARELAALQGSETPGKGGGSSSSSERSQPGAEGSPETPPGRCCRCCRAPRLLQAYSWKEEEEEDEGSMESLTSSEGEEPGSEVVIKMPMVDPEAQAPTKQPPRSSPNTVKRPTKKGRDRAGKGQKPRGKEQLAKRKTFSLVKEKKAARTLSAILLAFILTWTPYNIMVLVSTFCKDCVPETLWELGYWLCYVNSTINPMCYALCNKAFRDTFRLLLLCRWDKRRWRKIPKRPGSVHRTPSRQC

[6] = target: T3, M2 muscarinic receptor (Homo sapiens, UniProt P08172); assay: Muscarinic M2 binding assay; parameters: purchased PerkinElmer, Inc., Wellesley, Mass; host or cells: CHO cells
T3 sequence (P08172 1-466): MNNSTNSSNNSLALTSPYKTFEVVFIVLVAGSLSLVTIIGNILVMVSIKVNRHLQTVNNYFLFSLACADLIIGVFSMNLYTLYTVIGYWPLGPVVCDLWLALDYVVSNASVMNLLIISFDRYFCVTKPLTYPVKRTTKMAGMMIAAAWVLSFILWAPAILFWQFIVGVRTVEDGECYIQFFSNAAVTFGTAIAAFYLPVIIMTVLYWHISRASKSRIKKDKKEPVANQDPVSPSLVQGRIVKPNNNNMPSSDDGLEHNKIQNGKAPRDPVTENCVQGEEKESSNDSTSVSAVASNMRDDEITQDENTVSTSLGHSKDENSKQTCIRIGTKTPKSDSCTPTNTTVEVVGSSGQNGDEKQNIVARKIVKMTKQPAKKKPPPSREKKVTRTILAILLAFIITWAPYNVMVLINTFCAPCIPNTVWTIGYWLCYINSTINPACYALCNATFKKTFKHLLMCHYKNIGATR

[7] = target: M3 muscarinic receptor (Homo sapiens, UniProt P20309); assay: Muscarinic M3 binding assay; parameters: purchased PerkinElmer, Inc., Wellesley, Mass; host or cells: CHO cells
[8] = system: Adrenergic, Beta, Non-selective; assay: Table 12 panel: Adrenergic, Beta; format: binding; conditions: 1.0E−6, average N=2
Excerpt: (§1) The percentage inhibition (average; N=2) for these receptors is shown below in Table 12.
(§2) Values in Table 12 are expressed as percentage inhibition of specific binding, and these values represent the average of replicate tubes at each of the concentrations tested.

[9] = system: Muscarinic, Non-selective, Central; assay: Table 12 panel: Muscarinic, Central; format: binding; conditions: 1.0E−6, average N=2
Excerpt: as §1, §2

[10] = target: Testosterone (cytosolic) (Homo sapiens, UniProt P10275); assay: Table 12 panel: Testosterone; conditions: 1.0E−6, average N=2, read-out: percentage inhibition of specific binding
Excerpt: as §1, §2

[11] = 1 h, read-out: percentage inhibition of specific binding

T1 sequence (P30546 whole entry): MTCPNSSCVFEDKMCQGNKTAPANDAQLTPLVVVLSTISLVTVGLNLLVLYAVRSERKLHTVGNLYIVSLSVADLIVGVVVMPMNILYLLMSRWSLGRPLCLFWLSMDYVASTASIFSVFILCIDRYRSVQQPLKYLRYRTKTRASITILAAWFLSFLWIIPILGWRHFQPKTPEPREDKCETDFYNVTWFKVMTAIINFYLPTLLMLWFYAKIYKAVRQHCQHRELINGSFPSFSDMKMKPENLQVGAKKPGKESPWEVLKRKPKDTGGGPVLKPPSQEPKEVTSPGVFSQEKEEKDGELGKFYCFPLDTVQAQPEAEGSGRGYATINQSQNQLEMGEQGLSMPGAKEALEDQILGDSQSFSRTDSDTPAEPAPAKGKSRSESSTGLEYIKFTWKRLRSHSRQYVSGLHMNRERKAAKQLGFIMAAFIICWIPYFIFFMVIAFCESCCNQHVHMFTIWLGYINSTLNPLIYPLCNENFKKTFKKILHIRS
Chain of M3 muscarinic receptor (P20309 whole entry): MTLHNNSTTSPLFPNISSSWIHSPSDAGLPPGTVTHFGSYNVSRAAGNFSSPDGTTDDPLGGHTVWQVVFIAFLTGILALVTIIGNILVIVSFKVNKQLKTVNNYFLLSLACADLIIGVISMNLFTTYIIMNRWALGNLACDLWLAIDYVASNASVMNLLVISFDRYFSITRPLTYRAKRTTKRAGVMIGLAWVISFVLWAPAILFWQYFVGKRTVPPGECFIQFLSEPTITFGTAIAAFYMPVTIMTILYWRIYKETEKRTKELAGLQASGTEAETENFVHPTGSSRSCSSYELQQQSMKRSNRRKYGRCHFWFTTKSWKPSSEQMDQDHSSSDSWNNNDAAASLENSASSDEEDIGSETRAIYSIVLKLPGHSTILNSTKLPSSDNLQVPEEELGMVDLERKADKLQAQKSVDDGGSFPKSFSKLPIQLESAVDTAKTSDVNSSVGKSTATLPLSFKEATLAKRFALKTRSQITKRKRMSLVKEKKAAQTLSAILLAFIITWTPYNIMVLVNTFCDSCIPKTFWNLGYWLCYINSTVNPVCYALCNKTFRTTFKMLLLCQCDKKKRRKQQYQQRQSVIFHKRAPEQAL
Chain of Testosterone (cytosolic) (P10275 whole entry): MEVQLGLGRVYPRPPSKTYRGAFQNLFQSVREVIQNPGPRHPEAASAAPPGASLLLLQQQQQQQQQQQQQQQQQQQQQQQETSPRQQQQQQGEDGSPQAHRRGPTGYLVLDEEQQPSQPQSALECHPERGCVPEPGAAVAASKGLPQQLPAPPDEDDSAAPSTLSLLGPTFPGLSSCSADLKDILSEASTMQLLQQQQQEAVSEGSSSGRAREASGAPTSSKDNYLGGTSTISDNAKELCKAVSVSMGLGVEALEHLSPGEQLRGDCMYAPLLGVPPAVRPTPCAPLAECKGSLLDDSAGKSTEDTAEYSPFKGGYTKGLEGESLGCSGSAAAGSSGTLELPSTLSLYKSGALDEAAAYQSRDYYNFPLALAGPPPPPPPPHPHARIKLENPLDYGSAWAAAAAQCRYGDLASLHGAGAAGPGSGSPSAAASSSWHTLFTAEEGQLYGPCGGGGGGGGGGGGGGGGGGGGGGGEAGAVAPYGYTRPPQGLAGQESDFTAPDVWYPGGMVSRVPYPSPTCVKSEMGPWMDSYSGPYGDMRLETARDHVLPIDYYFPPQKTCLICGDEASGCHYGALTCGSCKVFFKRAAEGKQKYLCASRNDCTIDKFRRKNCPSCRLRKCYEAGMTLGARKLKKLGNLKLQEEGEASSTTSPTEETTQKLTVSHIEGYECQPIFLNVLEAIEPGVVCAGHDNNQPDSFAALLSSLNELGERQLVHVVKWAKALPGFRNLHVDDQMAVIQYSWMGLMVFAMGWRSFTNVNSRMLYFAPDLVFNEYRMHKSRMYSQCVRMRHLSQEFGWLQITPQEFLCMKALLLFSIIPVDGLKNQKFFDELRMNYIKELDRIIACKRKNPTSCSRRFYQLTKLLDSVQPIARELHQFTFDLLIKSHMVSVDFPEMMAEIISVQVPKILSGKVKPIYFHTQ
Chain of hERG (Q12809 whole entry): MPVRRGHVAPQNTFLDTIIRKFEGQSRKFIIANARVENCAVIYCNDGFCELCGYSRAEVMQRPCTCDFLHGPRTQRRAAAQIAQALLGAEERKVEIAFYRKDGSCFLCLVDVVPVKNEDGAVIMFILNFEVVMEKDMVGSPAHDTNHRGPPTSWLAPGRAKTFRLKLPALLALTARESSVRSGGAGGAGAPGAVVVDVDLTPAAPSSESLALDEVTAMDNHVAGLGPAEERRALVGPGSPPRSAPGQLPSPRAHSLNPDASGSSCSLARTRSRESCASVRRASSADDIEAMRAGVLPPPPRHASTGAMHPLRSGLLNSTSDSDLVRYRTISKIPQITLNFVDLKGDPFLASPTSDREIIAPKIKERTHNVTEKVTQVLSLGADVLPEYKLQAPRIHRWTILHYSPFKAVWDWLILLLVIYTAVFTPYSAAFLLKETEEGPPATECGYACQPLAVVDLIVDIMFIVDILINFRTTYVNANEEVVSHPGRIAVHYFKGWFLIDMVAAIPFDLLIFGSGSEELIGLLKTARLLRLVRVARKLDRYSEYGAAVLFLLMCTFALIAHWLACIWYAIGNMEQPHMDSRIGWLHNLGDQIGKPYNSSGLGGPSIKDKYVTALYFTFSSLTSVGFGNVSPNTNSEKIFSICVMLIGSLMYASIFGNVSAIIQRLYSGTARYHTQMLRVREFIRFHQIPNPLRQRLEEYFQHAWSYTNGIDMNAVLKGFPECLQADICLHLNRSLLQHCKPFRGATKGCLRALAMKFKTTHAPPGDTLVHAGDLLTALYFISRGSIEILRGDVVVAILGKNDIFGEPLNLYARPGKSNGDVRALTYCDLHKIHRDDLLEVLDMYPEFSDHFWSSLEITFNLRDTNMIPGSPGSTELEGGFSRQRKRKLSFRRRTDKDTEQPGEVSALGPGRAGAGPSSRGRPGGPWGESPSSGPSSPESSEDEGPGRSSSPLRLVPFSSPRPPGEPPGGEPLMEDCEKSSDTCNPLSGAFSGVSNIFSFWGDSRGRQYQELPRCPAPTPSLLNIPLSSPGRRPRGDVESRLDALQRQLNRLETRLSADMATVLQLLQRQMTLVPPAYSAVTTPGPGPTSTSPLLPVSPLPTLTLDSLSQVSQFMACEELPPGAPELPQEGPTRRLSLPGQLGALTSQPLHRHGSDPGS

CC(C)(CN1CCC(=C2c3ccc(F)cc3COc3ccccc32)CC1)C(=O)O [Compound 49a]
LUSB ([1]; dose 0.3 mg/kg oral at CT-18): 2.8 min
NREM ([1]; dose 0.3 mg/kg oral at CT-18): -6.6 min
LUSB ([1]; dose 1 mg/kg oral at CT-18): 4.3 min
NREM ([1]; dose 1 mg/kg oral at CT-18): 18.8 min
LUSB ([1]; dose 3 mg/kg oral at CT-18): 11.6 min
NREM ([1]; dose 3 mg/kg oral at CT-18): 37.2 min
LUSB ([1]; dose 10 mg/kg oral at CT-18): 14.1 min
NREM ([1]; dose 10 mg/kg oral at CT-18): 45.3 min
LUSB ([1]; dose 30 mg/kg oral at CT-18): 12.9 min
NREM ([1]; dose 30 mg/kg oral at CT-18): 49.1 min
pKi ([2]; read-out: Ki H1): 7.16
half-life ([3]; plasma, rat, 3 mg/kg): 66 min
Tmax ([3]; plasma, rat, 3 mg/kg, after oral administration): 15 min
Peak plasma levels ([3]; rats, most efficacious dose of 3 mg/kg in the sleep assay): less than 1.5 mM
hERG at micromolar (% blocking of the hERG channel) [4]: 10.9 @ 10%
pKi ([5]; read-out: Ki M1): < 5.00
pKi ([6]; read-out: Ki M2): < 5.00
pKi ([7]; read-out: Ki M3): < 5.00

CC(CC(=O)O)N1CCC(=C2c3ccc(F)cc3COc3ccccc32)CC1 (centres unmarked) [Compound 37]
REM inhibition ([1]; 10 mg/kg): did not produce any REM inhibition
body temperature ([1]; 10 mg/kg): no disproportional reduction
locomotor activity (LMA) ([1]; 10 mg/kg): no disproportional reduction
rebound insomnia ([1]; 10 mg/kg): did not produce any REM inhibition or rebound insomnia
Cumulative NREM sleep time increase, adjusted for baseline and relative to vehicle ([1]; 10 mg/kg PO at CT-18): 53 min
absolute average sleep bout ([1]; 10 mg/kg PO at CT-18): 9 min
absolute longest sleep bout post-treatment ([1]; 10 mg/kg PO at CT-18): 18.3 min
average sleep bout length increase, adjusted for baseline and relative to vehicle ([1]; 10 mg/kg PO at CT-18): 5.3 min
longest sleep bout (LUSB), adjusted for baseline and relative to vehicle ([1]; 10 mg/kg PO at CT-18): 10.8 min
peak NREM sleep time ([1]; 10 mg/kg PO at CT-18): 64 % per hour
body temperature ([1]; 30 mg/kg): drop in body temperature occurred only at this high dose
locomotor activity (LMA) ([1]; 30 mg/kg): no disproportional reduction in LMA
rebound insomnia ([1]; 30 mg/kg): No rebound insomnia was observed
Cumulative NREM sleep time increase, adjusted for baseline and relative to vehicle ([1]; 30 mg/kg PO at CT-18): 62 min
absolute average sleep bout ([1]; 30 mg/kg PO at CT-18): 9 min
absolute longest sleep bout post-treatment ([1]; 30 mg/kg PO at CT-18): 25 min
average sleep bout length increase, adjusted for baseline and relative to vehicle ([1]; 30 mg/kg PO at CT-18): 5.6 min
longest sleep bout (LUSB), adjusted for baseline and relative to vehicle ([1]; 30 mg/kg PO at CT-18): 17.1 min
peak NREM sleep time ([1]; 30 mg/kg PO at CT-18): 72 % per hour
REM inhibition ([1]; 30 mg/kg at CT-18): did not produce any appreciable REM inhibition
pIC50 [2]: 7.17
pKi [2]: 7.59
inhibition at 1 µM [2, 11]: 93.1%
Slope ([2]; H1 binding curve (Table 13)): −0.99
percentage inhibition of specific binding [8]: 6.97%
percentage inhibition of specific binding [9]: 12.84%
inhibition at 1 µM [10]: 0.24%
pIC50 [5]: < 5.00
pKi [5]: < 5.00
inhibition at 1 µM [5, 11]: 5.11%
pIC50 [6]: < 5.00
pKi [6]: < 5.00
inhibition at 1 µM [6, 11]: 14.6%
pIC50 ([7]; M3 receptor binding (Table 19)): < 5.00
pKi ([7]; M3 receptor binding (Table 19), read-out: Ki): < 5.00

Reference: US7326721B2 (Hypnion, Inc., priority 2003, dated 2008)
